This note sets out measurements from patent US20250114389A1, “NUCLEOSIDES AND NUCLEOTIDES ANALOGS AS ANTIVIRAL AGENTS” (Emory University, priority 2021, published 2025).

Where two headings read alike, the source gives them in different places.

Series [1] can be described thus: Cytotoxicity in PBM cells. Type of series: cell-based, human. The conditions noted are these: human. On the procedure:
The toxicity of the compounds was assessed in Vero, human PBM, CEM (human lymphoblastoid), MT-2, and HepG2 cells, as described previously (see Schinazi R. F., Sommadossi J.-P., Saalmann V., Cannon D. L., Xie M.-Y., Hart G. C., Smith G. A. & Hahn E. F. Antimicrob. Agents Chemother. 1990, 34, 1061-67). Cycloheximide was included as positive cytotoxic control, and untreated cells exposed to solvent were included as negative controls. The cytotoxicity IC50 was obtained from the concentration-response curve using the median effective method described previously (see Chou T.-C. & Talalay P. Adv. Enzyme Regul. 1984, 22, 27-55; Belen'kii M. S. & Schinazi R. F. Antiviral Res. 1994, 25, 1-11).

Series [2] is described as follows: Cytotoxicity in Huh7 cells. Type of series: cell-based. The conditions noted are these: human.
A further series concerns SARS-CoV-2. Kind of series: Anti-SARS-CoV-2 activity in Vero cells (virus yield inhibition). The series is classed as cell-based.
Series [3] is classed as in vitro ADME. To be noted: 10 μM. Here is the method:
An aliquot of 450 μL of human, mouse or hamster plasma were exposed to 10 μM of compound and incubated at 37° C. At 0, 5, 15, 30, 60, 90 and 120 min, 50 μL of plasma sample was mixed with 200 μL of ice-cold methanol (70%). 50 μL supernatant was dried and reconstituted in 100 μL H2O. Propantheline bromide was used as positive control. The supernatant was then subjected to LC-MS analysis (LC-MS condition: Instrument: Thermo TSQ Quantiva. Column: Kinetex […] (50×2.1 mm, […]). LC buffers: A): 0.1% formic acid, and B): acetonitrile. MRM methods: (269.2-112 positive), Indinavir (IS, 614.4-421.2 positive, IS)). The stability results are shown in FIGS. 2-4 (human plasma, mouse plasma and hamster plasma, respectively). Compound A is stable in human and mouse plasma up to 2 hours and stable up to […] in hamster plasma. Compound 23 was converted to compound A in hamster plasma in less than 5 min.

Consider `N#C[C@@]1(n2ccc(N)nc2=O)O[C@H](CO)[C@@H](O)[C@H]1O` [Compound A, (2R,3R,4S,5R)-2-(4-amino-2-oxopyrimidin-1(2H)-yl)-3,4-dihydroxy-5-(hydroxymethyl)-tetrahydrofuran-2-carbonitrile], for which the CC50 (as a rule, the concentration at which the toxic effect on the cells reaches its halfway point) was 92 µM in series [1] and more than 100 µM in series [2]. The EC50 (as a rule, the concentration needed to bring the measured effect to its halfway point) with SARS-CoV-2 (Severe acute respiratory syndrome coronavirus 2, Table 1, read-out: Anti-SARS-CoV-2 Activity (Vero) EC50) worked out at 0.6 µM. For the same molecule, the EC90 – broadly, the point of the concentration-response curve where the effect stands at 90% – in the series with SARS-CoV-2 (Severe acute respiratory syndrome coronavirus 2, Table 1, read-out: Anti-SARS-CoV-2 Activity (Vero) EC90) was 2.3 µM. Also, the “stable in plasma up to” value is listed as “up to 24 h” in series [3] (hamster), “up to 2 hours” in series [3] (human) and “up to 2 hours” in series [3] (mouse).
